Structures are written as SMILES. Where two headings read alike, the source gives them in different places. A value given as a limit tells only on which side of the number the result lay.

The target of test [1] is HCV NS3-NS4A protease (tNS3 with KK4A) (Hepatitis C virus genotype 1a, UniProt P27958). As to the kind of experiment: HCV Ki assay (HPLC microbore separation of 5AB substrate and products). It is filed as biochemical. As to the method: HPLC Microbore Method for Separation of 5AB Substrate and Products
Sequence of HCV NS3-NS4A protease (tNS3 with KK4A) (P27958 1027-1208): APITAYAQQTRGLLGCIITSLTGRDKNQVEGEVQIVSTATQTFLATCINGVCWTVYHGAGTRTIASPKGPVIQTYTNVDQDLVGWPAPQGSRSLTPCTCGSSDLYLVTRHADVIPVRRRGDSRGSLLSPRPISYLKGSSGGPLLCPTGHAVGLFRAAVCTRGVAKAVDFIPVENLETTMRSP
Substrate: NH2-Glu-Asp-Val-Val-(alpha)Abu-Cys-Ser-Met-Ser-Tyr-COOH
A stock solution of 20 mM 5AB (or concentration of your choice) was made in DMSO w/0.2M DTT. This was stored in aliquots at −20 C.
Buffer: 50 mM HEPES, pH 7.8; 20% glycerol; 100 mM NaCl
Total assay volume was 100 μL
The buffer, KK4A, DTT, and tNS3 were combined; distributed 78 μL each into wells of 96 well plate. This was incubated at 30 C for ˜5-10 min.
2.5 μL of appropriate concentration of test compound was dissolved in DMSO (DMSO only for control) and added to each well. This was incubated at room temperature for 15 min.
Initiated reaction by addition of 20 μL of 250 μM 5AB substrate (25 μM concentration is equivalent or slightly lower than the Km for 5AB).
Incubated for 20 min at 30 C.
Terminated reaction by addition of 25 μL of 10% TFA
Transferred 120 μL aliquots to HPLC vials
Separated SMSY product from substrate and KK4A by the following method:
Microbore Separation Method:
Instrumentation: Agilent 1100
Column thermostated chamber G1316A
Diode array detector G1315A
Solvent A=HPLC grade water+0.1% TFA
Solvent B=HPLC grade acetonitrile+0.1% TFA
Stop time: 17 min Post-run time: 10 min.

Test [2] concerns Cells containing hepatitis C virus (HCV) replicon. Briefly: HCV replicon cell assay. It is filed as cell-based. The protocol:
HCV Replicon Cell Assay Protocol
Cells containing hepatitis C virus (HCV) replicon were maintained in DMEM containing 10% fetal bovine serum (FBS), 0.25 mg per ml of G418, with appropriate supplements (media A).
On day 1, replicon cell monolayer was treated with a trypsin:EDTA mixture, removed, and then media A was diluted into a final concentration of 100,000 cells per ml with. 10,000 cells in 100 ul were plated into each well of a 96-well tissue culture plate, and cultured overnight in a tissue culture incubator at 37° C.
On day 2, compounds (in 100% DMSO) were serially diluted into DMEM containing 2% FBS, 0.5% DMSO, with appropriate supplements (media B). The final concentration of DMSO was maintained at 0.5% throughout the dilution series.
Media on the replicon cell monolayer was removed, and then media B containing various concentrations of compounds was added. Media B without any compound was added to other wells as no compound controls.
Cells were incubated with compound or 0.5% DMSO in media B for 48 hours in a tissue culture incubator at 37° C. At the end of the 48-hour incubation, the media was removed, and the replicon cell monolayer was washed once with PBS and stored at −80° C. prior to RNA extraction.
Culture plates with treated replicon cell monolayers were thawed, and a fixed amount of another RNA virus, such as Bovine Viral Diarrhea Virus (BVDV) was added to cells in each well. RNA extraction reagents (such as reagents from RNeasy kits) were added to the cells immediately to avoid degradation of RNA. Total RNA was extracted according the instruction of manufacturer with modification to improve extraction efficiency and consistency. Finally, total cellular RNA, including HCV replicon RNA, was eluted and stored at −80° C. until further processing.
A Taqman real-time RT-PCR quantification assay was set up with two sets of specific primers and probe. One was for HCV and the other was for BVDV. Total RNA extractants from treated HCV replicon cells was added to the PCR reactions for quantification of both HCV and BVDV RNA in the same PCR well. Experimental failure was flagged and rejected based on the level of BVDV RNA in each well. The level of HCV RNA in each well was calculated according to a standard curve run in the same PCR plate. The percentage of inhibition or decrease of HCV RNA level due to compound treatment was calculated using the DMSO or no compound control as 0% of inhibition. The IC50 (concentration at which 50% inhibition of HCV RNA level is observed) was calculated from the titration curve of any given compound.
(In antiviral work, replicon cells carry a viral genome segment that copies itself.)

[3] abbreviates: 25 nM tNS3, 25 μM KK4A, 25 μM 5AB substrate, 20 min at 30 C, read-out: Ki.
The mark [4] stands for this setting: 50% inhibition of HCV RNA level, 48-hour incubation, Taqman real-time RT-PCR, read-out: IC50.

`CCC[C@H](NC(=O)[C@@H]1[C@@H](C(C)(C)C)CCN1C(=O)[C@@H](NC(=O)[C@@H](NC(=O)c1cnccn1)C1CCCCC1)C(C)(C)C)C(=O)C(=O)NC1CC1` [Compound 73]: the inhibition constant Ki in test [1] (setting [3]) lay in the range of 0.1 to 0.5 µM. Further, the IC50 in test [2] (setting [4]) was more than 1 µM.
The matching figures for `CCC[C@H](NC(=O)[C@@H]1[C@@H](C2CCCCC2)CCN1C(=O)[C@@H](NC(=O)[C@@H](NC(=O)c1cnccn1)C1CCCCC1)C(C)(C)C)C(=O)C(=O)N[C@@H](C)C1CCCCC1` [Compound 67]: more than 0.5 µM and more than 1 µM.
The like results for `CCC[C@H](NC(=O)[C@@H]1[C@@H](C2CCCCC2)CCN1C(=O)[C@@H](NC(=O)[C@@H](NC(=O)c1ncc[nH]1)C1CCCCC1)C(C)(C)C)C(=O)C(=O)NC1CC1` [Compound 68] were, in that order, less than 0.1 µM and less than 0.5 µM.
Consider `CCCC(NC(=O)[C@@H]1[C@@H](C2CCCCC2)CCN1C(=O)[C@@H](NC(=O)[C@@H](NC(=O)c1cnccn1)C1CCCCC1)C(C)C)C(=O)C(=O)NC1CC1` (some centres unmarked) [Compound 54], for which the Ki in test [1] (setting [3]) is 0.1 to 0.5 µM. For the same molecule, the IC50 in test [2] (48 h) was more than 1 µM.
Regarding `CCC[C@H](NC(=O)[C@@H]1[C@@H](C2CCCCC2)CCN1C(=O)[C@@H](NC(=O)[C@@H](NC(=O)c1ccc[nH]1)C1CCCCC1)C(C)(C)C)C(=O)C(=O)NC1CC1` [Compound 72], in test [1] (setting [3]), the inhibitory constant (Ki) is less than 0.1 µM. Besides, the IC50 in test [2] (setting [4]) was 0.5 to 1 µM.
In the case of `CCCC(NC(=O)[C@@H]1[C@@H](C2CCCCC2)CCN1C(=O)[C@@H](NC(=O)[C@@H](NC(=O)C1CSC(=O)N1)C1CCCCC1)C(C)(C)C)C(=O)C(=O)N[C@@H](C)c1ccccc1` (some centres unmarked) [Compound 63], in test [1], the inhibition constant Ki was less than 0.1 µM. In addition, the concentration for half-maximal inhibition (IC50) in test [2] (setting [4]) lay in the range of 0.5 to 1 µM.
Regarding `CCCC(NC(=O)[C@@H]1[C@@H](CC)CCN1C(=O)[C@@H](NC(=O)[C@@H](NC(=O)c1cnccn1)C1CCCCC1)C(C)(C)C)C(=O)C(=O)N[C@@H](C)c1ccccc1` (some centres unmarked) [Compound 44], in test [1] (setting [3]), the Ki lay within 0.1 to 0.5 µM. Moreover, the IC50 in test [2] (setting [4]) fell in the range of 0.5 to 1 µM.
In the case of `CCC[C@H](NC(=O)[C@@H]1[C@@H](C2CCCCC2)CCN1C(=O)[C@@H](NC(=O)[C@@H](NC(=O)c1cnccn1)C1CCCCC1)C(C)(C)C)C(=O)C(=O)NC1CC1` [Compound 66], the Ki in test [1] (setting [3]) lay in the range of 0.1 to 0.5 µM. Further, in test [2] (setting [4]), the IC50 lay in the range of 0.5 to 1 µM.
The matching figures for `CCC[C@H](NC(=O)[C@@H]1[C@@H](C2CCCCC2)CCN1C(=O)[C@@H](NC(=O)[C@@H](NC(=O)c1cc([N+](=O)[O-])c[nH]1)C1CCCCC1)C(C)(C)C)C(=O)C(=O)NC1CC1` [Compound 71]: less than 0.1 µM and more than 1 µM.
The matching figures for `CCCC(NC(=O)[C@@H]1[C@@H](CC)CCN1C(=O)[C@@H](NC(=O)[C@@H](NC(=O)c1cnccn1)C1CCCCC1)C(C)(C)C)C(=O)C(=O)NC1CC1` (some centres unmarked) [Compound 39]: less than 0.1 µM and 0.5 to 1 µM.
With `CCC[C@H](NC(=O)[C@@H]1[C@@H](C(C)C)CCN1C(=O)[C@@H](NC(=O)[C@@H](NC(=O)c1ncc[nH]1)C1CCCCC1)C(C)(C)C)C(=O)C(=O)NC1CC1` [Compound 69], in test [1] (setting [3]), the inhibitory constant (Ki) is less than 0.1 µM. Besides, the IC50 in test [2] (setting [4]) is less than 0.5 µM.
Regarding `CCC[C@H](NC(=O)[C@@H]1[C@@H](C(C)C)CCN1C(=O)[C@@H](NC(=O)[C@@H](NC(=O)c1cnccn1)C1CCCCC1)C(C)C)C(=O)C(=O)NC1CC1` [Compound 64], the Ki in test [1] (setting [3]) lay in the range of 0.1 to 0.5 µM. The IC50 in test [2] (48 h) is more than 1 µM.
As to `CCC[C@H](NC(=O)[C@@H]1[C@@H](Cc2ccccc2)CCN1C(=O)[C@@H](NC(=O)[C@@H](NC(=O)c1cnccn1)C1CCCCC1)C(C)(C)C)C(=O)C(=O)NC1CC1` [Compound 77], in test [1] (setting [3]), the inhibition constant Ki lay within 0.1 to 0.5 µM. Also, the half-maximal inhibitory concentration (IC50) in test [2] (setting [4]) is more than 1 µM.
Turning to `CCC[C@H](NC(=O)[C@@H]1[C@@H](C2CCCC2)CCN1C(=O)[C@@H](NC(=O)[C@@H](NC(=O)c1cnccn1)C1CCCCC1)C(C)(C)C)C(=O)C(=O)NC1CC1` [Compound 75], in test [1] (setting [3]), the Ki was in the range of 0.1 to 0.5 µM. Besides, the IC50 in test [2] (setting [4]) is more than 1 µM.
As to `CCCC(NC(=O)[C@@H]1[C@@H](C2CCCCC2)CCN1C(=O)[C@@H](NC(=O)[C@@H](NC(=O)c1cnccn1)C1CCCCC1)C(C)(C)C)C(=O)C(=O)NC1CC1` (some centres unmarked) [Compound 55], in test [1] (setting [3]), the Ki is less than 0.1 µM. Besides, the IC50 in test [2] (setting [4]) is 0.5 to 1 µM.
The like results for `CCCC(NC(=O)[C@@H]1[C@@H](C2CCCCC2)CCN1C(=O)[C@@H](NC(=O)[C@@H](NC(=O)c1cnccn1)C1CCCCC1)C(C)(C)C)C(=O)C(=O)N[C@@H](C)c1ccccc1` (some centres unmarked) [Compound 62] were, in that order, less than 0.1 µM and 0.5 to 1 µM.
In the case of `CCC[C@H](NC(=O)[C@@H]1[C@@H](CC)[C@@H](C)CN1C(=O)[C@@H](NC(=O)[C@@H](NC(=O)c1cnccn1)C1CCCCC1)C(C)(C)C)C(=O)C(=O)NC1CC1` [Compound 76], in test [1] (setting [3]), the Ki lay in the range of 0.1 to 0.5 µM. In addition, the IC50 in test [2] (setting [4]) was more than 1 µM.
Turning to `CCC[C@H](NC(=O)[C@@H]1[C@@H](C(CC)CC)CCN1C(=O)[C@@H](NC(=O)[C@@H](NC(=O)c1cnccn1)C1CCCCC1)C(C)(C)C)C(=O)C(=O)NC1CC1` [Compound 74], the Ki in test [1] (setting [3]) lay in the range of 0.1 to 0.5 µM. The IC50 in test [2] (setting [4]) is more than 1 µM.
The like results for `CC[C@H]1CCN(C(=O)[C@@H](NC(=O)[C@@H](NC(=O)c2cnccn2)C2CCCCC2)C(C)(C)C)[C@@H]1C(=O)NC(CC(F)F)C(=O)C(=O)NC1CC1` (some centres unmarked) [Compound 52] were, in that order, less than 0.1 µM and less than 0.5 µM.

Broadly, the Ki is the dissociation constant of the complex between target and ligand, obtained from inhibition or displacement. As usually defined, the IC50 is the concentration that inhibits the measured activity by half.

Values taken from US8618152B2, “Inhibitors of serine proteases, particularly HCV NS3-NS4A proteases” (Vertex Pharmaceuticals Incorporated, priority 2003, dated 2013).
